From patent publication EP4603105A1, “PHARMACEUTICAL COMPOSITION CONTAINING CYCLIC COMPOUND HAVING SELECTIVE KRAS INHIBITORY EFFECT AGAINST HRAS AND NRAS” (CHUGAI SEIYAKU KABUSHIKI KAISHA, priority 2022, dated 2024)
Read-outs that look alike come from different tables or passages of the source. *1 amine or outer side, *2 acyl side, *3 side chain or, on linkers, in order; H or OH if unused. Where a SMILES comes first, the peptide text is derived from it. Bridges are numbered along the chain shown (N, C = ends). [ ]: non-standard residue; d: D form. The star is where a group is joined. hPhe(3-Cl-4-CF3) = N[C@@H](CCc1ccc(C(F)(F)F)c(Cl)c1)C(=O)O; X43 = COCCCN([C@@H](Cc1ccc(C(F)(F)F)cc1)C(=O)[*:2])[*:1]; X41 = CCCN([C@@H](Cc1ccc(OC)cc1)C(=O)[*:2])[*:1]; X8 = CCCN([C@@H](COCCC(C)C)C(=O)[*:2])[*:1]; NMeGly(cPent) = CN[C@H](C(=O)O)C1CCCC1; NMeD = CN[C@@H](CC(=O)O)C(=O)O; NMeL = CN[C@@H](CC(C)C)C(=O)O; Morpholide = C1CN(*)CCO1; NMeA = CN[C@@H](C)C(=O)O; Ac5c = NC1(C(=O)O)CCCC1; Aze = O=C(O)[C@@H]1CCN1; Ac4c = NC1(C(=O)O)CCC1; Sar = CNCC(=O)O

Columns and labels:
[1] = target: GDP-bound NRAS wild-type protein (Homo sapiens, UniProt P01111); assay: Binding to NRAS by surface plasmon resonance (SPR), KD and KD ratio to KRAS
Sequence of GDP-bound NRAS wild-type protein (P01111 whole entry): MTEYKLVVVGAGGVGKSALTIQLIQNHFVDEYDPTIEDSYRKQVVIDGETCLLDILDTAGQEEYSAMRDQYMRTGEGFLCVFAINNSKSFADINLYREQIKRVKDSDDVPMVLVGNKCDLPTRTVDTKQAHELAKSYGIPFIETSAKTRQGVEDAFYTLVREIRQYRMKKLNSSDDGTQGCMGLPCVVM
In short: (§1)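 Recombinant RAS proteins bearing a biotinylated Avi tag and loaded with GDP served as the captured ligand, recaptured fresh every cycle. Binding responses were referenced to an uncoated surface and a buffer-only blank cycle. Dissociation constants were obtained by 1:1 model fitting at 30°C.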

[2] = target: HRAS wild-type protein (Homo sapiens, UniProt P01112); assay: Binding to HRAS by surface plasmon resonance (SPR), KD and KD ratio to KRAS
Sequence of HRAS wild-type protein (P01112 whole entry): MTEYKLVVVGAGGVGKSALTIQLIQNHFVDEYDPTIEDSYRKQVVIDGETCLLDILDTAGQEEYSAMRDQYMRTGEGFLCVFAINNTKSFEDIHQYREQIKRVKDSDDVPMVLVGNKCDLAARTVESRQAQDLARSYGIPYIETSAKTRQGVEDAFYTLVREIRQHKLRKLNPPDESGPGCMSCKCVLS
In short: as §1

[3] = system: human lung cancer strain NCI-H441; format: cell-based
In short: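 Signal came from […] measured per well once the reagent was added. Beforehand, cells were cultured at 37°C and 5% carbon dioxide on a compound series serially diluted in dimethyl sulfoxide.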

[4] = ratio of KD for GDP-bound NRAS wild-type protein to KD for KRAS
[5] = ratio of KD for HRAS wild-type protein to KD for KRAS
[6] = ratio of the KD value with respect to GDP-bound NRAS wild-type protein to the KD value with respect to KRAS
[7] = ratio of the KD value with respect to HRAS wild-type protein to the KD value with respect to KRAS
[8] = ratio of KD value for GDP-bound NRAS wild-type protein to KD value for KRAS (SPR)
[9] = ratio of KD value for HRAS wild-type protein to KD value for KRAS (SPR)

Row | SMILES | NRAS /KRAS [1, 4] | HRAS /KRAS [2, 5] | IC50 [3] [nM] | NRAS /KRAS [1, 6] | HRAS /KRAS [2, 7] | IC50 ([3]; NCI-H441 cells, 4 days, CellTiter-Glo, read-out: NCl-H441 IC50) [nM] | NRAS /KRAS [1, 8] | HRAS /KRAS [2, 9]
1 | CCC[C@H]1C(=O)N[C@@H]([C@@H](C)CC)C(=O)N(C2CC2)CC(=O)N(C)[C@H]2C/C=C\CCN(C2=O)[C@@H](Cc2ccc(C)cc2)C(=O)N(C)CC(=O)N[C@@H](CCc2cc(F)c3c(c2)OCC3)C(=O)N2C[C@H](OCC)C[C@H]2C(=O)NC2(CC(C)(C)C2)C(=O)N(C)[C@@H](C2CCCC2)C(=O)N(C)[C@H](C(=O)N(C)C)CC(=O)N1C [PP2880] | A (a compound having 10 or more and less than 20 is denoted as A) | A (a compound having 10 or more and less than 20 is denoted as A) | 127 |  |  |  |  | 
2 | CCO[C@@H]1C[C@H]2C(=O)NC3(CCC3)C(=O)N(C)[C@@H](C3CCCC3)C(=O)N(C)[C@H](C(=O)N(C)C)CC(=O)N(C)[C@@H](CC(C)C)C(=O)N[C@@H]([C@@H](C)CC)C(=O)N(C)CC(=O)N(C)[C@H]3CCCCN(C3=O)[C@@H](Cc3ccc(C(F)(F)F)cc3)C(=O)N(C)CC(=O)N[C@@H](CCc3cc(F)c(C(F)(F)F)c(F)c3)C(=O)N2C1 [PP0580] |  |  | 1.8 | C (A compound having a KD ratio of 0.1 or more and less than 3 is denoted as C) | C (A compound having a KD ratio of 0.1 or more and less than 3 is denoted as C) |  |  | 
3 | CC[C@H](C)[C@@H]1NC(=O)[C@H](CC(C)C)N(C)C(=O)C[C@@H](C(=O)N2CCOCC2)N(C)C(=O)[C@H](C2CCCC2)N(C)C(=O)C2(CCCC2)NC(=O)[C@H](C)N(CC)C(=O)[C@H](CCc2cc(F)c(C(F)(F)F)c(F)c2)NC(=O)CN(C)C(=O)[C@H](Cc2ccc(C(F)(F)F)cc2)N2CCCC[C@@H](C2=O)N(C)C(=O)CN(C)C1=O [PP0589] |  |  | 24.8 | B (a compound having 3 or more and less than 10 is denoted as B) | B (a compound having 3 or more and less than 10 is denoted as B) |  |  | 
4 | CC[C@H](C)[C@@H]1NC(=O)[C@@H]2CCC/C=C/c3ccc(cc3)C[C@@H](C(=O)N(C)CC(=O)N[C@@H](CCc3ccc(Cl)c(Cl)c3)C(=O)N3CCC[C@H]3C(=O)NC3(CC(C)(C)C3)C(=O)N(C)[C@@H](C3CCCC3)C(=O)N(C)[C@H](C(=O)N3CCCC3)CC(=O)N2C)N2CC/C=C\C[C@@H](C2=O)N(C)C(=O)CN(C)C1=O [PP2602] | A (a compound having 10 or more and less than 20 is denoted as A) | A (a compound having 10 or more and less than 20 is denoted as A) | 12.8 |  |  |  |  | 
5 | CCC[C@H]1C(=O)N[C@@H]([C@@H](C)CC)C(=O)N(C)CC(=O)N(C)[C@H]2C/C=C\CCN(C2=O)[C@@H](Cc2ccc(C(F)(F)F)cc2)C(=O)N(C)CC(=O)N[C@@H](CCc2cc(Cl)c(C(F)F)c(Cl)c2)C(=O)N2C[C@H](OCC)C[C@H]2C(=O)NC2(CC(C)(C)C2)C(=O)N(C)[C@@H](C2CCCC2)C(=O)N(C)[C@H](C(=O)N(C)C)CC(=O)N1C [PP2865] | A (a compound having 10 or more and less than 20 is denoted as A) | A (a compound having 10 or more and less than 20 is denoted as A) |  |  |  | 37.7 |  | 
6 | CCCN1C(=O)CN(C)C(=O)CN(C)C(=O)[C@H]([C@@H](C)CC)NC(=O)[C@H](CC(C)C)N(C)C(=O)C[C@@H](C(=O)N2CCOCC2)N(C)C(=O)[C@H](C2CCCC2)N(C)C(=O)C2(CCCC2)NC(=O)[C@@H]2CCCN2C(=O)[C@H](CCc2ccc(C(F)(F)F)c(Cl)c2)NC(=O)CN(C)C(=O)[C@@H]1Cc1ccc(OC)cc1 [PP0135] ([NMeL]I[Sar][Sar][X41][Sar][hPhe(3-Cl-4-CF3)]P[Ac5c][NMeGly(cPent)][NMeD]-Morpholide; lactam N-11) | B (a compound having 3 or more and less than 10 is denoted as B) | C (A compound having a KD ratio of 0.1 or more and less than 3 is denoted as C) | 26.1 |  |  |  |  | 
7 | CCO[C@@H]1C[C@H]2C(=O)NC3(CC(F)(F)C3)C(=O)N(C)[C@@H](C3CCCC3)C(=O)N(C)[C@H](C3CCC3)CC(=O)N(C)[C@@H](CC3CC3)C(=O)N[C@@H]([C@@H](C)CC)C(=O)N(C)CC(=O)N(C)[C@H]3C/C=C\CCN(C3=O)[C@@H](Cc3ccc(C(F)(F)F)cc3)C(=O)N(C)CC(=O)N[C@@H](CCc3cc(F)c(C(F)(F)F)c(F)c3)C(=O)N2C1 [PP1639] |  |  | 44.8 |  |  |  | A (a compound having 10 or more and less than 20 is denoted as A) | A (a compound having 10 or more and less than 20 is denoted as A)
8 | C#CC[C@H]1C(=O)N[C@@H]([C@@H](C)CC)C(=O)N(C)CC(=O)N(C)[C@H]2C/C=C\CCN(C2=O)[C@@H](Cc2ccc(C(F)(F)F)cc2)C(=O)N(C)CC(=O)N[C@@H](CCc2cc(F)c(C(F)(F)F)c(F)c2)C(=O)N2C[C@H](OCC)C[C@H]2C(=O)NC2(CCC2)C(=O)N(C)[C@@H](C2CCCC2)C(=O)N(C)[C@H](C(=O)N(C)CCC)CC(=O)N1C [PP1703] |  |  | 7.2 |  |  |  | A (a compound having 10 or more and less than 20 is denoted as A) | A (a compound having 10 or more and less than 20 is denoted as A)
9 | CC[C@H](C)[C@@H]1NC(=O)[C@H](CC(C)C)N(C)C(=O)C[C@@H](C(=O)N2CCCCC2)N(C)C(=O)[C@H](C2CCCC2)N(C)C(=O)C2(CCCC2)NC(=O)[C@@H]2CCCN2C(=O)[C@H](CCc2cc(F)c(C(F)(F)F)c(F)c2)NC(=O)CN(C)C(=O)[C@H](Cc2ccc(C(F)(F)F)cc2)N2CCCC[C@@H](C2=O)N(C)C(=O)CN(C)C1=O [PP0572] |  |  | 9 | B (a compound having 3 or more and less than 10 is denoted as B) | B (a compound having 3 or more and less than 10 is denoted as B) |  |  | 
10 | C#CC[C@H]1C(=O)N[C@@H]([C@@H](C)CC)C(=O)N(C)CC(=O)N(C)[C@H]2C/C=C\CCN(C2=O)[C@@H](Cc2ccc(C(F)(F)F)cc2)C(=O)N(C)CC(=O)N[C@@H](CCc2cc(F)c(C(F)(F)F)c(F)c2)C(=O)N2CC3(CC3)C[C@H]2C(=O)NC2(CC(C)(C)C2)C(=O)N(C)[C@@H](C2CCCC2)C(=O)N(C)[C@H](C(=O)N(C)C)CC(=O)N1C [PP2976] | A (a compound having 10 or more and less than 20 is denoted as A) | B (a compound having 3 or more and less than 10 is denoted as B) | 8.7 |  |  |  |  | 
11 | CC[C@H](C)[C@@H]1NC(=O)[C@@H](CC(C)C)N(C)C(=O)C[C@@H](C(=O)N(C)C)N(C)C(=O)[C@@H](C2CCCC2)N(C)C(=O)C2(CCCC2)NC(=O)[C@@H]2CCCN2C(=O)[C@H](CCc2ccc(C(F)(F)F)c(Cl)c2)NC(=O)CN(C)C(=O)[C@@H](Cc2ccc(C)cc2)N2CC/C=C\CCN(CC2=O)C(=O)CN(C)C1=O [PP0618] |  |  | 79.1 | C (A compound having a KD ratio of 0.1 or more and less than 3 is denoted as C) | C (A compound having a KD ratio of 0.1 or more and less than 3 is denoted as C) |  |  | 
12 | CCCN1C(=O)[C@@H]2CCN2C(=O)[C@H](C)N(C)C(=O)[C@H]([C@@H](C)CC)NC(=O)[C@H](CC(C)C)N(C)C(=O)C[C@@H](C(=O)N(C)C)N(C)C(=O)[C@H](C2CCCC2)N(C)C(=O)C2(CCC2)NC(=O)[C@@H]2CCCN2C(=O)[C@H](CCc2ccc(C(F)(F)F)c(Cl)c2)NC(=O)CN(C)C(=O)[C@@H]1COCCC(C)C [PP1820] ([NMeL]I[NMeA][Aze][X8][Sar][hPhe(3-Cl-4-CF3)]P[Ac4c][NMeGly(cPent)][NMeD]-NMe2; lactam N-11) |  |  | 40.7 |  |  |  | C (A compound having a KD ratio of 0.1 or more and less than 3 is denoted as C) | C (A compound having a KD ratio of 0.1 or more and less than 3 is denoted as C)
13 | CC[C@H](C)[C@@H]1NC(=O)[C@H](CC(C)C)N(C)C(=O)C[C@@H](C(=O)N2CCOCC2)N(C)C(=O)[C@H](C2CCCC2)N(C)C(=O)C2(CCCC2)NC(=O)[C@@H]2CCCN2C(=O)[C@H](CCc2ccc(C(F)(F)F)c(Cl)c2)NC(=O)CN(C)C(=O)[C@H](Cc2ccc(C(F)(F)F)cc2)N(CCCOC)C(=O)CN(C)C(=O)CN(C)C1=O [PP0133] ([NMeL]I[Sar][Sar][X43][Sar][hPhe(3-Cl-4-CF3)]P[Ac5c][NMeGly(cPent)][NMeD]-Morpholide; lactam N-11) | B (a compound having 3 or more and less than 10 is denoted as B) | C (A compound having a KD ratio of 0.1 or more and less than 3 is denoted as C) | 6.4 |  |  |  |  | 
14 | CCC[C@H]1C(=O)N[C@@H]([C@@H](C)CC)C(=O)N(C)CC(=O)N(C)[C@H]2C/C=C\CCN(C2=O)[C@@H](Cc2ccc(C)cc2)C(=O)N(C)CC(=O)N[C@@H](CCc2cc(F)c(C(F)(F)F)c(F)c2)C(=O)N2C[C@H](OCC)C[C@H]2C(=O)N(C)C2(CCC2)C(=O)N(C)[C@@H](C2CCCC2)C(=O)N(C)[C@H](C(=O)N(C)C)CC(=O)N1C [PP1793] |  |  | 2.4 |  |  |  | A (a compound having 10 or more and less than 20 is denoted as A) | B (a compound having 3 or more and less than 10 is denoted as B)
15 | CCO[C@@H]1C[C@H]2C(=O)NC3(CCC3)C(=O)N(C)[C@@H](C3CCCC3)C(=O)N(C)[C@H](C(=O)N(C)C)CC(=O)N(C)[C@@H](CC)C(=O)N[C@@H]([C@@H](C)CC)C(=O)N(C)CC(=O)N(C)[C@H]3C/C=C\CCN(C3=O)[C@@H](Cc3ccc(C(F)(F)F)cc3)C(=O)N(C)CC(=O)N[C@@H](CCc3ccc(C(F)(F)F)c(Cl)c3)C(=O)N2C1 [PP0978] | A (a compound having 10 or more and less than 20 is denoted as A) | B (a compound having 3 or more and less than 10 is denoted as B) | 22.7 |  |  |  |  | 
